Paper PMC4556830, “The Effect of MGCD0103 on CYP450 Isoforms Activity of Rats by Cocktail Method” (BioMed Research International, 2015)

Test: Pharmacokinetics of six cocktail probe drugs in rat plasma (UPLC-MS/MS) after 7-day MGCD0103 or saline
Conditions: for Cmax / half-life: Sprague-Dawley, rat, in vivo, po; for Cmax: C max
Protocol: The compounds were analyzed by a UPLC-MS/MS with ACQUITY I-Class UPLC and a XEVO TQD triple quadrupole mass spectrometer that was equipped with an electrospray ionization (ESI) interface (Waters Corp., Milford, MA, USA). The UPLC system included a Sample Manager with Flow-Through Needle (SM-FTN) and a Binary Solvent Manager (BSM). Data acquisition and instrument control were performed on the MassLynx 4.1 software (Waters Corp., Milford, MA, USA).
The initial mobile phase consisted of 0.1% formic acid and acetonitrile with gradient elution at a flow rate of 0.4 mL/min and an injection volume of 2 μL. […] The total run time of the analysis was 3 min.
The mass spectrometric detection was performed in a positive mode. Nitrogen was used as the cone gas (50 L/h) and desolvation gas (1000 L/h). The mass conditions were set as follows: source temperature 150°C, capillary voltage 2.5 kV, and desolvation temperature 500°C.
Forty rats (220 ± 20 g) were randomly divided into four different dosages of MGCD0103 groups (Low group, Medium group, High group, and control group with 10 rats in each group). MGCD0103 was dissolved in corn oil as suspension at three different concentrations (20, 40, and 80 mg/mL). Three different MGCD0103 groups (Low group, Medium group, and High group) were respectively given MGCD0103 20, 40, and 80 mg/kg one time by intragastric administration at every morning and last for 7 days. Control group were given saline by same administration method.
100 μL of plasma was obtained from blood sample after centrifugation at 4000 g for 10 min. In a 1.5 mL centrifuge tube, 200 μL of acetonitrile (containing 50 ng/mL IS) was added into 100 μL of collected plasma sample. […] Then supernatant (2 μL) was injected into the UPLC-MS/MS system for analysis.
Concentration of plasma probe drugs versus time was analyzed by Version 3.0 Data Analysis System (Wenzhou Medical University, China). The main pharmacokinetic parameters of the MGCD0103 group and control group were analyzed by SPSS l8.0 statistical software.

[1] = Control group: saline i.g. 7 days (no MGCD0103), then probe 10 mg/kg (tolbutamide 1 mg/kg) i.g., rat plasma, mean ± SD, n = 10
[2] = High group: MGCD0103 80 mg/kg i.g. 7 days, then probe 10 mg/kg (tolbutamide 1 mg/kg) i.g., rat plasma, mean ± SD, n = 10
[3] = Low group: MGCD0103 20 mg/kg i.g. 7 days, then probe 10 mg/kg (tolbutamide 1 mg/kg) i.g., rat plasma, mean ± SD, n = 10
[4] = Medium group: MGCD0103 40 mg/kg i.g. 7 days, then probe 10 mg/kg (tolbutamide 1 mg/kg) i.g., rat plasma, mean ± SD, n = 10
[5] = high dosage MGCD0103 group vs control, p < 0.05

Row | SMILES | AUC(0–t) [1] | AUC(0–∞) [1] | V [1] | AUC(0–t) [2] | AUC(0–∞) [2] | V [2] | AUC(0–t) [3] | AUC(0–∞) [3] | V [3] | AUC(0–t) [4] | AUC(0–∞) [4] | V [4] | change of CL versus control group [5] | other results
1 | C[C@]12CC[C@H]3[C@@H](CCC4=CC(=O)CC[C@@]43C)[C@@H]1CC[C@@H]2O [Testosterone] | 85.9 ± 40.6 ng/mL∗h | 89.9 ± 43.9 ng/mL∗h | 161.1 ± 82.2 L/kg | 490.7 ± 1044.2 ng/mL∗h | 524.5 ± 1042.4 ng/mL∗h | 254.0 ± 291.0 L/kg | 404.5 ± 908.2 ng/mL∗h | 417.2 ± 927.8 ng/mL∗h | 259.1 ± 168.6 L/kg | 81.3 ± 28.8 ng/mL∗h | 106.5 ± 45.1 ng/mL∗h | 253.2 ± 204.3 L/kg | shortened | CL [1]: 143.8 ± 89.6 L/h/kg; CL [2]: 64.9 ± 33.4^∗ L/h/kg; CL [3]: 104.8 ± 49.0 L/h/kg; CL [4]: 109.0 ± 43.8 L/h/kg; Cmax (10 mg/kg, Control group: saline i.g. 7 days (no MGCD0103), then probe 10 mg/kg (tolbutamide 1 mg/kg) i.g., rat plasma, mean ± SD, n = 10): 88.1 ± 54.2 ng/mL; Cmax (10 mg/kg, High group: MGCD0103 80 mg/kg i.g. 7 days, then probe 10 mg/kg (tolbutamide 1 mg/kg) i.g., rat plasma, mean ± SD, n = 10): 462 ± 1030 ng/mL; Cmax (10 mg/kg, Low group: MGCD0103 20 mg/kg i.g. 7 days, then probe 10 mg/kg (tolbutamide 1 mg/kg) i.g., rat plasma, mean ± SD, n = 10): 302 ± 631 ng/mL; Cmax (10 mg/kg, Medium group: MGCD0103 40 mg/kg i.g. 7 days, then probe 10 mg/kg (tolbutamide 1 mg/kg) i.g., rat plasma, mean ± SD, n = 10): 93.2 ± 75.3 ng/mL; half-life (10 mg/kg, t 1/2, Control group: saline i.g. 7 days (no MGCD0103), then probe 10 mg/kg (tolbutamide 1 mg/kg) i.g., rat plasma, mean ± SD, n = 10): 1 ± 0.6 h; half-life (10 mg/kg, t 1/2, High group: MGCD0103 80 mg/kg i.g. 7 days, then probe 10 mg/kg (tolbutamide 1 mg/kg) i.g., rat plasma, mean ± SD, n = 10): 4 ± 7.1 h; half-life (10 mg/kg, t 1/2, Low group: MGCD0103 20 mg/kg i.g. 7 days, then probe 10 mg/kg (tolbutamide 1 mg/kg) i.g., rat plasma, mean ± SD, n = 10): 1.7 ± 0.8 h; half-life (10 mg/kg, t 1/2, Medium group: MGCD0103 40 mg/kg i.g. 7 days, then probe 10 mg/kg (tolbutamide 1 mg/kg) i.g., rat plasma, mean ± SD, n = 10): 2.2 ± 2.4 h; difference for AUC, t 1/2 between high dosage group and control group (high dosage MGCD0103 group vs control, p > 0.05): no significant difference
2 | CCCCNC(=O)NS(=O)(=O)c1ccc(C)cc1 [Tolbutamide] | 88701.2 ± 19274.8 ng/mL∗h | 89852.0 ± 19168.1 ng/mL∗h | 0.088 ± 0.019 L/kg | 64052.9 ± 15988.6^∗ ng/mL∗h | 64353.2 ± 15998.9^∗ ng/mL∗h | 0.099 ± 0.020 L/kg | 82724.8 ± 13265.9 ng/mL∗h | 83176.9 ± 13264.2 ng/mL∗h | 0.090 ± 0.014 L/kg | 72448.6 ± 14850.4 ng/mL∗h | 72761.4 ± 14754.7 ng/mL∗h | 0.093 ± 0.010 L/kg | increased | half-life (t 1/2): 5.2 ± 1.2 h; change of AUC(0–t) versus control group [5]: decreased
